ChEMBL document CHEMBL3227989, “Coenzyme--substrate adducts as inhibitors of mouse liver 3,4-dihydroxyphenylalanine decarboxylase” (J Med Chem, 1979)

What was measured:
[1] = target: T1, Aromatic-L-amino-acid decarboxylase (Mus musculus, UniProt O88533); experiment: Inhibition of ICR Swiss mouse liver dopa decarboxylase after 15 mins
T1 sequence (O88533 whole entry): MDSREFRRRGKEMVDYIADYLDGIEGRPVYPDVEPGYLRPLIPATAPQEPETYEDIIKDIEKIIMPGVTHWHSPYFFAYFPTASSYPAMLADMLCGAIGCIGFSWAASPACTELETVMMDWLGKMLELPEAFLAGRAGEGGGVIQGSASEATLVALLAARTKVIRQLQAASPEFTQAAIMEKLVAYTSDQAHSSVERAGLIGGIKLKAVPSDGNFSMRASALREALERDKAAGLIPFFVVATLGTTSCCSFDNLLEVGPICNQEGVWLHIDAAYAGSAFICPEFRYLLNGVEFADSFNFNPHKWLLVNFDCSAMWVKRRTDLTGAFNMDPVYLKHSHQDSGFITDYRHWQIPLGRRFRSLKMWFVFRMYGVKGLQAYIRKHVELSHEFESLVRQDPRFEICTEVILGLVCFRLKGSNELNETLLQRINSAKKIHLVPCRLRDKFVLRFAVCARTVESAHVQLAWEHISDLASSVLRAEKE

[2] = target: T2, Aromatic-L-amino-acid decarboxylase (Mus musculus) (UniProt O88533); experiment: Inhibition of ICR Swiss mouse liver dopa decarboxylase at 10^-3 M after 15 mins
T2 sequence (whole entry): T1 sequence (O88533 whole entry)

[3] = target: T2, Aromatic-L-amino-acid decarboxylase (Mus musculus); experiment: Inhibition of ICR Swiss mouse liver dopa decarboxylase at 10^-4 M after 15 mins
[4] = target: T2, Aromatic-L-amino-acid decarboxylase (Mus musculus); experiment: Inhibition of ICR Swiss mouse liver dopa decarboxylase at 10^-5 M after 15 mins
[5] = target: T2, Aromatic-L-amino-acid decarboxylase (Mus musculus); experiment: Inhibition of ICR Swiss mouse liver dopa decarboxylase at 2 X 10^-3 M after 15 mins
[6] = target: T2, Aromatic-L-amino-acid decarboxylase (Mus musculus); experiment: Inhibition of ICR Swiss mouse liver dopa decarboxylase at 2 X 10^-5 M after 15 mins
[7] = target: T2, Aromatic-L-amino-acid decarboxylase (Mus musculus); experiment: Inhibition of ICR Swiss mouse liver dopa decarboxylase at 2 X 10^-4 M after 15 mins
[8] = compound: Cc1ncc(COP(=O)(O)O)c(CN[C@@H](Cc2ccc(O)c(O)c2)C(=O)O)c1O; experiment: Inhibition of pig liver dopa decarboxylase; details: Sus scrofa

Q: How did the IC50 [1] turn out when Cc1ncc(COP(=O)(O)O)c(CN[C@@H](Cc2ccc(O)c(O)c2)C(=O)O)c1O was run?
A: 10 µM

Q: Cc1ncc(COP(=O)(O)O)c(CN[C@@H](Cc2ccc(O)cc2)C(=O)O)c1O was tested. Which IC50 [1] did it give?
A: 70 µM

Q: Which inhibition [2] does the source give for Cc1ncc(COP(=O)(O)O)c(C2NC(C(=O)O)Cc3cc(O)c(O)cc32)c1O (racemic) here?
A: < 10%

Q: What does the source list for Cc1ncc(COP(=O)(O)O)c(CN[C@@H](Cc2ccccc2)C(=O)O)c1O?
A: inhibition [2]: 83%; inhibition [3]: 57%; inhibition [4]: 17%; inhibition [5]: 85%

Q: With Cc1ncc(COP(=O)(O)O)c(CNC(Cc2ccc(O)c(O)c2)C(=O)O)c1O (racemic) as the molecule, how does the inhibition [6] read?
A: 63%

Q: How did the inhibition [5] turn out when Cc1ncc(COP(=O)(O)O)c(CNC(Cc2ccccc2O)C(=O)O)c1O (racemic) was run?
A: 62%

Q: What about the inhibition [6] of the same molecule?
A: 53%

Q: What does the source list for Cc1cnc(C)c(O)c1CNC(Cc1ccc(O)c(O)c1)C(=O)O (racemic)?
A: inhibition [5]: 50%; inhibition [7]: 15%

B1: Aromatic-L-amino-acid decarboxylase (Sus scrofa), P80041 (protein)
chain: MNASDFRRRGKEMVDYMADYLEGIEGRQVYPDVQPGYLRPLIPATAPQEPDTFEDILQDVEKIIMPGVTHWHSPYFFAYFPTASSYPAMLADMLCGAIGCIGFSWAASPACTELETVMMDWLGKMLQLPEAFLAGEAGEGGGVIQGSASEATLVALLAARTKVVRRLQAASPGLTQGAVLEKLVAYASDQAHSSVERAGLIGGVKLKAIPSDGKFAMRASALQEALERDKAAGLIPFFVVATLGTTSCCSFDNLLEVGPICHEEDIWLHVDAAYAGSAFICPEFRHLLNGVEFADSFNFNPHKWLLVNFDCSAMWVKRRTDLTGAFKLDPVYLKHSHQGSGLITDYRHWQLPLGRRFRSLKMWFVFRMYGVKGLQAYIRKHVQLSHEFEAFVLQDPRFEVCAEVTLGLVCFRLKGSDGLNEALLERINSARKIHLVPCRLRGQFVLRFAICSRKVESGHVRLAWEHIRGLAAELLAAEEGKAEIKS
Q: How did the Km [8] turn out when B1 was run?
A: 190 µM
